Data as given in PubChem BioAssay AID288 (DTP/NCI, 2004).
“And” between values parts separate entries of the source, which are not always exact repeats. Equal values may be shown once. Records with an inconclusive call do not appear.

System: BDF1 mice, M5076 sarcoma s.c., survival/tumor T/C
Test: NCI In Vivo Anticancer Drug Screen. Data for tumor model Sarcoma M5076 (subcutaneous) in B6D2F1 (BDF1) mice
Procedure: The antitumor activity of compounds was measured in mice bearing transplantable tumors. Survival or tumor size were measured and the results are expressed as the measurement made in the treated group (T) divided by the measurement made in the vehicle treated control group (C). The tumor model used in this assay is Sarcoma M5076 (subcutaneous) in B6D2F1 (BDF1) mice

[1] = endpoint: median survival time, dose: 50.0 mg/kg/injection, schedule: Q01DX009 (ip), vehicle: saline with Tween-80, higher = longer survival
[2] = endpoint: median survival time, dose: 100.0 mg/kg/injection, schedule: Q01DX009 (ip), vehicle: saline with Tween-80, higher = longer survival
[3] = endpoint: median survival time, dose: 200.0 mg/kg/injection, schedule: Q01DX009 (ip), vehicle: saline with Tween-80, higher = longer survival
[4] = endpoint: median tumor weight (est.), dose: 50.0 mg/kg/injection, schedule: Q01DX009 (ip), vehicle: saline with Tween-80, higher = larger tumour
[5] = endpoint: median tumor weight (est.), dose: 100.0 mg/kg/injection, schedule: Q01DX009 (ip), vehicle: saline with Tween-80, higher = larger tumour
[6] = endpoint: median tumor weight (est.), dose: 200.0 mg/kg/injection, schedule: Q01DX009 (ip), vehicle: saline with Tween-80, higher = larger tumour

Compound: CCC(NN)C(=O)OCc1ccccc1 (stereo not drawn)
- T/C [1]: 107 % of control
- T/C [2]: 104 % of control
- T/C [3]: 104 % of control
- T/C [4]: 75 % of control
- T/C [5]: 103 % of control
- T/C [6]: 109 % of control

Compound: CCCCOc1ccc(-n2c(=O)[nH]c3ccccc3c2=O)cc1
- T/C [1]: 101 % of control
- T/C [2]: 94 % of control
- T/C [3]: 101 % of control
- T/C [4]: 97 % of control
- T/C [5]: 100 % of control
- T/C [6]: 105 % of control

Compound: CCOC(=O)c1ccc(N2C(=O)OC(C)(C)C2=O)cc1
- T/C [1]: 108 % of control
- T/C [2]: 115 % of control
- T/C [3]: 95 % of control
- T/C [4]: 99 % of control
- T/C [5]: 97 % of control
- T/C [6]: 80 % of control

Compound: O=C1c2ccccc2C(=O)c2c(NCCNCCO)ccc(O)c21
- T/C (endpoint: median survival time, dose: 12.5 mg/kg/injection, schedule: Q04DX003 (ip), vehicle: saline with Tween-80, higher = longer survival): 90 % of control
- T/C (endpoint: median survival time, dose: 25.0 mg/kg/injection, schedule: Q04DX003 (ip), vehicle: saline with Tween-80, higher = longer survival): 116 % of control
- T/C (endpoint: median survival time, dose: 50.0 mg/kg/injection, schedule: Q04DX003 (ip), vehicle: saline with Tween-80, higher = longer survival): 103 % of control
- T/C (endpoint: median survival time, dose: 100.0 mg/kg/injection, schedule: Q04DX003 (ip), vehicle: saline with Tween-80, higher = longer survival): 104 % of control and 107 % of control
- T/C (endpoint: median survival time, dose: 150.0 mg/kg/injection, schedule: Q04DX003 (ip), vehicle: saline with Tween-80, higher = longer survival): 122 % of control

Compound: O=C(O)CCCc1ccc(N(CCCl)CCCl)cc1
- T/C (endpoint: median survival time, dose: 1.5 mg/kg/injection, schedule: Q02DX030 (ip), vehicle: saline with Tween-80, higher = longer survival): 158 % of control
- T/C (endpoint: median survival time, dose: 3.0 mg/kg/injection, schedule: Q02DX030 (ip), vehicle: saline with Tween-80, higher = longer survival): 194 % of control
- T/C (endpoint: median survival time, dose: 3.0 mg/kg/injection, schedule: Q04DX006 (ip), vehicle: saline with Tween-80, higher = longer survival): 100 % of control
- T/C (endpoint: median survival time, dose: 6.0 mg/kg/injection, schedule: Q04DX006 (ip), vehicle: saline with Tween-80, higher = longer survival): 117 % of control
- T/C (endpoint: median survival time, dose: 12.0 mg/kg/injection, schedule: Q04DX006 (ip), vehicle: saline with Tween-80, higher = longer survival): 124 % of control

Compound: COC1=C(C)C(=O)C2=C(C1=O)C(CO)N1C(C#N)C3CC4C(C1C2N1CCOC41)N3C (stereo not drawn)
- T/C (endpoint: median survival time, dose: 0.06 mg/kg/injection, schedule: Q01DX009 (ip), vehicle: saline + alcohol, higher = longer survival): 100 % of control
- T/C (endpoint: median survival time, dose: 0.13 mg/kg/injection, schedule: Q01DX009 (ip), vehicle: saline + alcohol, higher = longer survival): 96 % of control
- T/C (endpoint: median survival time, dose: 0.25 mg/kg/injection, schedule: Q01DX009 (ip), vehicle: saline + alcohol, higher = longer survival): 91 % of control
- T/C (endpoint: median survival time, dose: 0.5 mg/kg/injection, schedule: Q01DX009 (ip), vehicle: saline + alcohol, higher = longer survival): 106 % of control
- T/C (endpoint: median tumor weight (est.), dose: 0.06 mg/kg/injection, schedule: Q01DX009 (ip), vehicle: saline + alcohol, higher = larger tumour): 103 % of control
- T/C (endpoint: median tumor weight (est.), dose: 0.13 mg/kg/injection, schedule: Q01DX009 (ip), vehicle: saline + alcohol, higher = larger tumour): 153 % of control
- T/C (endpoint: median tumor weight (est.), dose: 0.25 mg/kg/injection, schedule: Q01DX009 (ip), vehicle: saline + alcohol, higher = larger tumour): 95 % of control
- T/C (endpoint: median tumor weight (est.), dose: 0.5 mg/kg/injection, schedule: Q01DX009 (ip), vehicle: saline + alcohol, higher = larger tumour): 80 % of control

Compound: CCOC(=O)C(CC(C)C)NC(=O)C(Cc1ccc(N(CCCl)CCCl)cc1)NC(C)=O (stereo not drawn)
- T/C (endpoint: median survival time, dose: 8.0 mg/kg/injection, schedule: Q01DX009 (ip), vehicle: saline with Tween-80, higher = longer survival): 111 % of control
- T/C (endpoint: median survival time, dose: 16.0 mg/kg/injection, schedule: Q01DX009 (ip), vehicle: saline with Tween-80, higher = longer survival): 117 % of control and 122 % of control
- T/C (endpoint: median survival time, dose: 64.0 mg/kg/injection, schedule: Q01DX009 (ip), vehicle: saline with Tween-80, higher = longer survival): 170 % of control
- T/C (endpoint: median tumor weight (est.), dose: 8.0 mg/kg/injection, schedule: Q01DX009 (ip), vehicle: saline with Tween-80, higher = larger tumour): 61 % of control
- T/C (endpoint: median tumor weight (est.), dose: 16.0 mg/kg/injection, schedule: Q01DX009 (ip), vehicle: saline with Tween-80, higher = larger tumour): 52 % of control
- T/C (endpoint: median tumor weight (est.), dose: 32.0 mg/kg/injection, schedule: Q01DX009 (ip), vehicle: saline with Tween-80, higher = larger tumour): 16 % of control

Compound: CC(=O)O[C@H]1C(=O)[C@@]2(C)[C@H]([C@H](OC(=O)c3ccccc3)[C@]3(O)C[C@H](OC(=O)[C@H](O)[C@@H](NC(=O)c4ccccc4)c4ccccc4)C(C)=C1C3(C)C)[C@]1(OC(C)=O)CO[C@@H]1C[C@@H]2O
- T/C (endpoint: mean tumor weight, dose: 10.0 mg/kg/injection, schedule: Q02DX011 (ip), vehicle: Klucel (hydroxypropylcellulose) (HPC), higher = larger tumour): 103 % of control
- T/C (endpoint: mean tumor weight, dose: 20.0 mg/kg/injection, schedule: Q02DX011 (ip), vehicle: Klucel (hydroxypropylcellulose) (HPC), higher = larger tumour): 78 % of control
- T/C (endpoint: mean tumor weight, dose: 40.0 mg/kg/injection, schedule: Q02DX011 (ip), vehicle: Klucel (hydroxypropylcellulose) (HPC), higher = larger tumour): 57 % of control
- T/C (endpoint: median survival time, dose: 1.32 mg/kg/injection, schedule: Q02DX011 (ip), vehicle: Klucel (hydroxypropylcellulose) (HPC), higher = longer survival): 108 % of control
- T/C (endpoint: median survival time, dose: 1.32 mg/kg/injection, schedule: Q02DX011 (ip), vehicle: other, higher = longer survival): 115 % of control
- T/C (endpoint: median survival time, dose: 1.98 mg/kg/injection, schedule: Q02DX011 (ip), vehicle: Klucel (hydroxypropylcellulose) (HPC), higher = longer survival): 111 % of control
- T/C (endpoint: median survival time, dose: 1.98 mg/kg/injection, schedule: Q02DX011 (ip), vehicle: other, higher = longer survival): 109 % of control
- T/C (endpoint: median survival time, dose: 2.5 mg/kg/injection, schedule: Q04DX003 (ip), vehicle: Klucel (hydroxypropylcellulose) (HPC), higher = longer survival): 85 % of control
- T/C (endpoint: median survival time, dose: 2.96 mg/kg/injection, schedule: Q02DX011 (ip), vehicle: Klucel (hydroxypropylcellulose) (HPC), higher = longer survival): 103 % of control
- T/C (endpoint: median survival time, dose: 4.44 mg/kg/injection, schedule: Q02DX011 (ip), vehicle: Klucel (hydroxypropylcellulose) (HPC), higher = longer survival): 111 % of control
- T/C (endpoint: median survival time, dose: 4.44 mg/kg/injection, schedule: Q02DX011 (ip), vehicle: other, higher = longer survival): 115 % of control
- T/C (endpoint: median survival time, dose: 5.0 mg/kg/injection, schedule: Q04DX003 (ip), vehicle: Klucel (hydroxypropylcellulose) (HPC), higher = longer survival): 103 % of control
- T/C (endpoint: median survival time, dose: 6.67 mg/kg/injection, schedule: Q02DX011 (ip), vehicle: Klucel (hydroxypropylcellulose) (HPC), higher = longer survival): 119 % of control
- T/C (endpoint: median survival time, dose: 6.67 mg/kg/injection, schedule: Q02DX011 (ip), vehicle: other, higher = longer survival): 112 % of control
- T/C (endpoint: median survival time, dose: 10.0 mg/kg/injection, schedule: Q02DX011 (ip), vehicle: Klucel (hydroxypropylcellulose) (HPC), higher = longer survival): 110 % of control
- T/C (endpoint: median survival time, dose: 10.0 mg/kg/injection, schedule: Q02DX011 (ip), vehicle: other, higher = longer survival): 106 % of control
- T/C (endpoint: median survival time, dose: 10.0 mg/kg/injection, schedule: Q04DX003 (ip), vehicle: Klucel (hydroxypropylcellulose) (HPC), higher = longer survival): 109 % of control
- T/C (endpoint: median survival time, dose: 15.0 mg/kg/injection, schedule: Q02DX011 (ip), vehicle: Klucel (hydroxypropylcellulose) (HPC), higher = longer survival): 91 % of control
- T/C (endpoint: median survival time, dose: 15.0 mg/kg/injection, schedule: Q02DX011 (ip), vehicle: other, higher = longer survival): 107 % of control
- T/C (endpoint: median survival time, dose: 22.5 mg/kg/injection, schedule: Q02DX011 (ip), vehicle: other, higher = longer survival): 108 % of control
- T/C (endpoint: median tumor weight (est.), dose: 1.32 mg/kg/injection, schedule: Q02DX011 (ip), vehicle: Klucel (hydroxypropylcellulose) (HPC), higher = larger tumour): 83 % of control
- T/C (endpoint: median tumor weight (est.), dose: 1.32 mg/kg/injection, schedule: Q02DX011 (ip), vehicle: other, higher = larger tumour): 106 % of control
- T/C (endpoint: median tumor weight (est.), dose: 1.98 mg/kg/injection, schedule: Q02DX011 (ip), vehicle: Klucel (hydroxypropylcellulose) (HPC), higher = larger tumour): 73 % of control
- T/C (endpoint: median tumor weight (est.), dose: 1.98 mg/kg/injection, schedule: Q02DX011 (ip), vehicle: other, higher = larger tumour): 96 % of control
- T/C (endpoint: median tumor weight (est.), dose: 2.96 mg/kg/injection, schedule: Q02DX011 (ip), vehicle: Klucel (hydroxypropylcellulose) (HPC), higher = larger tumour): 87 % of control
- T/C (endpoint: median tumor weight (est.), dose: 2.96 mg/kg/injection, schedule: Q02DX011 (ip), vehicle: other, higher = larger tumour): 87 % of control
- T/C (endpoint: median tumor weight (est.), dose: 4.44 mg/kg/injection, schedule: Q02DX011 (ip), vehicle: Klucel (hydroxypropylcellulose) (HPC), higher = larger tumour): 62 % of control
- T/C (endpoint: median tumor weight (est.), dose: 4.44 mg/kg/injection, schedule: Q02DX011 (ip), vehicle: other, higher = larger tumour): 76 % of control
- T/C (endpoint: median tumor weight (est.), dose: 6.67 mg/kg/injection, schedule: Q02DX011 (ip), vehicle: Klucel (hydroxypropylcellulose) (HPC), higher = larger tumour): 58 % of control
- T/C (endpoint: median tumor weight (est.), dose: 6.67 mg/kg/injection, schedule: Q02DX011 (ip), vehicle: other, higher = larger tumour): 79 % of control
- T/C (endpoint: median tumor weight (est.), dose: 10.0 mg/kg/injection, schedule: Q02DX011 (ip), vehicle: other, higher = larger tumour): 63 % of control
- T/C (endpoint: median tumor weight (est.), dose: 15.0 mg/kg/injection, schedule: Q02DX011 (ip), vehicle: Klucel (hydroxypropylcellulose) (HPC), higher = larger tumour): 73 % of control
- T/C (endpoint: median tumor weight (est.), dose: 15.0 mg/kg/injection, schedule: Q02DX011 (ip), vehicle: other, higher = larger tumour): 59 % of control
- T/C (endpoint: median tumor weight (est.), dose: 20.0 mg/kg/injection, schedule: Q02DX011 (ip), vehicle: Klucel (hydroxypropylcellulose) (HPC), higher = larger tumour): 63 % of control
- T/C (endpoint: median tumor weight (est.), dose: 22.5 mg/kg/injection, schedule: Q02DX011 (ip), vehicle: other, higher = larger tumour): 38 % of control
- T/C (endpoint: median tumor weight (est.), dose: 40.0 mg/kg/injection, schedule: Q02DX011 (ip), vehicle: Klucel (hydroxypropylcellulose) (HPC), higher = larger tumour): 31 % of control
